The values that follow come from patent US8916709B2, “1,2,4-oxadiazole and 1,2,4-thiadiazole β-lactamase inhibitors” (priority 2012, dated 2014).

Assay [1] relates to bacterial strains that express OXA-15 β-lactamases. Nature of the assay: Standard BLI potentiation MIC / synergy MIC assays, strains expressing OXA-15. Type of assay: cell-based, E. coli. The note with it: in combination with a β-lactam; versus Avibactam (comparator compound CCC). From the text:
(§1) A set of β-lactamase expressing isogenic E. coli strains was constructed by cloning a β-lactamase gene into a customized derivative of pBR322 (GenBank Accession Number J01749) and transforming the engineered plasmids into E. coli. The NdeI restriction site within the plasmid backbone of pBR322 was removed to generate pBR322ΔNdeI. The pBR322ΔNdeI vector itself, minus the blaTEM-1 gene, was amplified using two primers: (1) pBR-Pbla 5′-[…]-3, SEQ ID 1, a primer with an engineered NdeI restriction site at the 3′ end of the blaTEM-1 promoter and (2) pBR-vec-1 5′-[…]-3′, SEQ ID 2, a primer with an engineered BamHI restriction site at the 3′ end of the blaTEM-1 open reading frame. The chloramphenicol resistance gene, cat, was generated by PCR amplification from pKD3 (GenBank Accession Number AY048742) using primers with an engineered NdeI restriction site at the 5′ end (Pbla-cat 5′-[…]-3′, SEQ ID 3) and an engineered BamHI restriction site at the 3′ end (Vec-1-cat 5′-[…]-3′, SEQ ID 4) of the resistance gene. The two PCR products, pBR322ΔNdeI and cat were ligated together generating pBR-CBST (pBR322ΔNdeI ΔTEM-1::cat Seq. ID 5) which retains both the pBR322 tetracycline resistance cassette, tetA, and the plasmid origin of replication but the blaTEM-1 gene was replaced by the cat gene.
(§2) Using this engineering strategy a number of plasmids producing β-lactamase genes from different classes (see below) were generated using synthetic genes with an engineered NdeI restriction site at the 5′ end and BamHI restriction site at the 3′ end of each gene (GenScript). Both the synthetic β-lactamase genes and cat gene were ligated into the NdeI/BamHI sites of the pBR322ΔNdeI PCR product and transformed into electrocompetent E. coli ElectroMax DH10B (Invitrogen/Life Technologies). E. coli DH10B harboring the recombinant plasmids were selected on LB agar (supplemented with 25 μg/mL tetracycline) and single isolated colonies were then inoculated into 5 mL LB media (supplemented with 25 μg/mL tetracycline), and incubated at 37° C. with aeration (250 rpm) for 18 hrs. The cultures were frozen back at −80° C. in 20% glycerol. The DNA sequence of the cloned β-lactamase genes was confirmed. The β-lactamase gene expression in the recombinant E. coli strains was driven by the blaTEM-1 promoter in the pBR-CBST plasmid and was characterized by MIC profiling of the E. coli recombinant strains against comparator β-lactam/BLI combinations in broth microdilution assay. […]

For assay [2], the system named is bacterial strains that express KPC β-lactamases. Nature of the assay: Standard BLI potentiation MIC / synergy MIC assays, strains expressing KPC. The assay is classed as cell-based. The note with it: in combination with a β-lactam; versus Avibactam.
Text: as §1, §2

The structures appear in SMILES notation. Structures can show the parent of a compound that is named as a salt.

Regarding `O=C1N2C[C@@H](CC[C@H]2c2ncno2)N1OS(=O)(=O)O` [Compound 801, (2S,5R)-2-(1,2,4-oxadiazol-5-yl)-7-oxo-1,6-diazabicyclo[3.2.1]octan-6-yl hydrogen sulfate], the “activity against strains that express OXA-15 β-lactamases compared with Avibactam” value in assay [1] is “more active than Avibactam”. Further, the “activity / spectrum of activity against strains that express KPC β-lactamases compared with Avibactam” value (“activity / spectrum … compared with Avibactam” below) in assay [2] is recorded as “more active than, and/or show a better spectrum of activity than Avibactam”.
Consider `CCCC[N+](CCCC)(CCCC)CCCC.Nc1noc([C@@H]2CC[C@@H]3CN2C(=O)N3OS(=O)(=O)[O-])n1` [Compound 802, (2S,5R)-2-(3-amino-1,2,4-oxadiazol-5-yl)-7-oxo-1,6-diaza-bicyclo[3.2.1]octan-6-yl tetrabutylaminooxy sulfonate], for which the “activity against strains that express OXA-15 β-lactamases compared with Avibactam” value in assay [1] was “more active than Avibactam”. The “activity / spectrum … compared with Avibactam” value in assay [2] is recorded as “more active than, and/or show a better spectrum of activity than Avibactam”.
`O=C1N2C[C@@H](CC[C@H]2c2ncon2)N1OS(=O)(=O)O` [Compound 804, (2S,5R)-2-(1,2,4-oxadiazol-3-yl)-7-oxo-1,6-diazabicyclo[3.2.1]octan-6-yl hydrogen sulfate]: in assay [1], the “activity against strains that express OXA-15 β-lactamases compared with Avibactam” value is “more active than Avibactam”. The “activity / spectrum … compared with Avibactam” value in assay [2] is recorded as “more active than, and/or show a better spectrum of activity than Avibactam”.
On to `Nc1nc([C@@H]2CC[C@@H]3CN2C(=O)N3OS(=O)(=O)O)no1` [Compound 805, (2S,5R)-2-(5-amino-1,2,4-oxadiazol-3-yl)-7-oxo-1,6-diazabicyclo[3.2.1]octan-6-yl hydrogen sulfate], for which the “activity against strains that express OXA-15 β-lactamases compared with Avibactam” value in assay [1] is recorded as “more active than Avibactam”. Further, the “activity / spectrum … compared with Avibactam” value in assay [2] is “more active than, and/or show a better spectrum of activity than Avibactam”.
